# Experimental data reported in patent publication US20240199455A1, “REMOVAL OF TOXIC OXYANIONS BY CO-CRYSTALLIZATION WITH SULFATE” (UT-Battelle, LLC, priority 2022, published 2024).
# Tests used:
# [1] = Cocrystallization from simulated Bull Run groundwater
# Method: (§1) In a typical experiment, BIG chloride was added to wastewater containing sulfate, selenate, and/or selenite anions, and immediately upon addition, a white precipitate formed. The resulting suspensions were mixed for 24 h using a rotator set at 60 rpm inside an incubator set to 25 C. The samples were then removed and centrifuged for 10 min at 3000 rpm to separate the aqueous and solid phases. In the field, the suspended solids were filtered through a filter press. A 1 mL aliquot was then removed from each sample and passed through a 0.02 μm syringe filter to ensure any suspended solid was removed from the filtrate prior to diluting the samples in 2% HNO3 for ICP-MS analysis. To recover the BIG ligand, 2.1 equiv. of NaOH (or adjusted to a pH of 11) was added to a suspension of the BIG-oxyanion salts in a 15 mL polypropylene centrifuge tube. The suspension was mixed for 24 h at 60 rpm. The suspended BIG neutral solid was filtered from the supernatant solutions containing the oxyanions dissolved as soluble sodium salts. The BIG chloride salts were then regenerated by the addition of 0.1 M HCl to the neutral ligands. This process is depicted schematically in FIG. 5.
# The efficacies of sulfate and selenate removal with BBIG and PyBIG ligands were next tested with simulated wastewater to determine if the EPA's 5 ppb discharge limit was achievable. The initial concentrations of sulfate and selenate in the simulated wastewater were based on typical values found in groundwaters monitored at the Bull Run steam plant of Tennessee Valley Authority (TVA). The simulated Bull Run groundwater contained an 8985-fold excess concentration of sulfate relative to selenate, with sulfate and selenate concentrations of 5.84±0.11 mM and 0.65±0.07 μM, respectively. Cocrystallization studies were performed with 1 and 2 mol equiv of BBIG or PyBIG. […] On the other hand, selenate removal was near quantitative with 2 equiv of BBIG (FIG. 4a).
# [2] = Cocrystallization from equimolar sulfate/selenate mixture (2.5 mM each); conditions: for selenate removal / sulfate removal: 2.5 mM sulfate + 2.5 mM selenate; for ratio of sulfate to selenate % removal: equimolar mixture
# Method: as §1
# Concomitant crystallization of sulfate and selenate with either BBIG or PyBIG led to near quantitative removal of both oxyanions from equimolar aqueous mixtures. Cocrystallization experiments were carried out keeping the concentration of sulfate and selenate at near equimolar concentrations of 2.5 mM, while the BIG concentrations were increased gradually from 5 to 50 mM. […] At higher BBIG concentrations, the oxyanion removal remained near quantitative. Referring to the ratio of sulfate to selenate % removal, a ratio of 1.0 indicates there is no preference for sulfate over selenate. […] At relative ligand concentrations higher than 1 equivalent of BBIG, the ratio of removal efficiencies approaches 1, indicating no preference between the two oxyanions by crystallization under these conditions.
# PyDIG also quantitatively removed sulfate and selenate at higher BIG concentrations. […] Increasing the PyBIG concentration achieved a ratio of approximately 1, indicating no discrimination between sulfate and selenate with excess PyBIG. With both BBIG and PyBIG, it appears the 2:1 BIG:oxyanions ratio is ideal for effectively removing SO4^2− and SeO4^2− anions from solution with minimal excess of the BIG ligands.
# [3] = Crystallization of individual oxyanion (5 mM) with BIG chloride, ICP-MS of filtrate; conditions: for selenate removal efficiency: 5 mM selenate alone; for sulfate removal efficiency: 5 mM sulfate alone
# Method: as §1
# Crystallization studies with BBIG and individual sulfate, selenate, or selenite anions (5 mM) were performed, while the concentration of BIGs was increased from one to ten molar equivalents. […] On the other hand, only approximately half (53.0%, FIG. 2a) of the selenite was removed from the solution with 1 equivalent of BBIG, which can be attributed to its propensity to form HScO3^−, by deprotonating BBIG in the process. […] Once again, selenite was removed to a lesser extent (70.7%) with 1 equivalent of PyBIG (FIG. 2b).
# [4] = Crystallization at constant 2.5 mM sulfate and decreasing selenate (2.5 mM to 2.5 μM); conditions: 2.5 mM sulfate
# Method: as §1
# Crystallization experiments were carried out keeping sulfate at a constant concentration and decreasing the selenate concentration while maintaining constant ionic strength to mimic wastewater conditions. These experiments were carried out at 1 and 2 molar equivalents of BBIG or PyBIG. […] At lower selenate concentrations of 250, 25, and 2.5 μM, there is no discernible preference between the oxyanions. […] At the lowest concentration of selenate, the amount remaining in solution after crystallization is below the limit of detection of 0.02 ppb Se. The same trend is observed for PyBIG, with near quantitative removal of both sulfate and selenate.
# [5] = Cocrystallization from simulated Bull Run leachate
# Method: as §1
# A more concentrated simulated wastewater solution based on Bull Run's leachate water that has leached from fly ash beds was also tested with BBIG and PyBIG. The concentrations of sulfate and selenate in the simulated leachate were 48.49±0.7 mM and 2.37±0.16 μM, respectively, with sulfate concentration being 20,460 times higher than that of selenate. In the case of BBIG, 1 equiv removed 96.3% and 95.4% sulfate and selenate, respectively, while 2 equiv removed sulfate and selenate near quantitatively at 99.90% and 99.94%, respectively, with a final Se concentration of 8.59±0.62 ppb (1 equiv) and 0.20±0.01 ppb (2 equiv). In the case of PyBIG, 89.2% and 85.5% sulfate and selenate, respectively, were removed with 1 equiv, and 99.98% and 99.99%, respectively with 2 equiv. The final Se concentrations after cocrystallization with PyBIG were 27.23±0.92 ppb (1 equiv) and 0.02±0.01 ppb (2 equiv), reaching the limit of detection. […] In fact, the large excess of sulfate present in the wastewaters appears to help remove trace amounts of selenate by cocrystallization with BBIG or PyBIG, down to sub-ppb levels of Se.
# [6] = simulated groundwater (5.84 mM sulfate, 0.65 μM selenate), 1 equiv BIG
# [7] = simulated groundwater, 2 equiv BIG
# [8] = 1 molar equivalent BIG relative to total oxyanion
# [9] = BIG increased to 2 equivalents (PyBIG: increased concentration, plateau after 2 equivalents)
# [10] = BIG at twice the oxyanion concentration (10 mM)
# [11] = simulated leachate (48.49 mM sulfate, 2.37 μM selenate), 1 equiv BIG
# [12] = simulated leachate, 2 equiv BIG
compound,measurement,setting,value
"N=C(N)N/N=C/c1cccc(/C=N/NC(=N)N)n1 [PyBIG, pyridinedialdehydebis(iminoguanidinium)]",selenate removal,[1]; [6],81.6%
same,sulfate removal,[1]; [6],88.5%
same,final Se concentration,"[1]; simulated groundwater, 1 equiv BIG",9.39±0.34 ppb
same,final Se concentration,[1]; [7],0.02±0.01 ppb
same,selenate removal,[1]; [7],99.96%
same,sulfate removal,[1]; [7],99.94%
same,selenate removal,[2]; [8],75.6%
same,sulfate removal,[2]; [8],82.3%
same,selenate removal,[2]; [9],99.7%
same,sulfate removal,[2]; [9],97.8%
same,ratio of sulfate to selenate % removal,"[2]; 1 equivalent BIG, 1.0 = no preference",0.84
same,ratio of sulfate to selenate % removal,[2]; more than 1 equivalent (excess) BIG,approximately 1
same,selenate removal efficiency,[3]; 5 mM (1 equiv) BIG,93.9%
same,selenate removal efficiency,[3]; [10],99.8%
same,selenite removal efficiency,"[3]; 5 mM selenite alone, 1 equivalent BIG",70.7%
same,sulfate removal efficiency,"[3]; 5 mM (1 equiv) BIG, 24 h, 25 C",95.0%
same,sulfate removal efficiency,[3]; [10],99.9%
same,selenate removal,[4]; 1 equiv BIG,75.6%
same,sulfate removal,[4]; 1 equiv BIG,82.3%
same,selenate removal,[4]; 2 equiv BIG,> 99.7%
same,sulfate removal,[4]; 2 equiv BIG,> 99.7%
same,sulfate-to-selenate removal ratio,[5]; simulated groundwater and leachate,approximately one
same,selenate removal,[5]; [11],85.5%
same,sulfate removal,[5]; [11],89.2%
same,final Se concentration,"[5]; simulated leachate, 1 equiv BIG",27.23±0.92 ppb
same,final Se concentration,[5]; [12],0.02±0.01 ppb
same,selenate removal,[5]; [12],99.99%
same,sulfate removal,[5]; [12],99.98%
